Molecular target: GLP-1R (Homo sapiens, UniProt P43220)
Experiment: GLP-1R Activation - cAMP Assay
Type: cell-based
Conditions: cAMP increase in CHO cells stably expressing GLP-1R; each compound run on one of the two cAMP assays (Assay 1 or Assay 2, not specified)
Summary of the method: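 cAMP rise read by HTRF after 30 min agonist exposure (10-point titration, 37 °C) in HBSS/20 mM Hepes/0.1% BSA, following 1 h pre-incubation. Cells: stable GLP-1R CHO line, 1,000/well, seeded overnight. Sigmoidal fit of response vs log concentration gives EC50.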

Chain of GLP-1R (P43220 24-463): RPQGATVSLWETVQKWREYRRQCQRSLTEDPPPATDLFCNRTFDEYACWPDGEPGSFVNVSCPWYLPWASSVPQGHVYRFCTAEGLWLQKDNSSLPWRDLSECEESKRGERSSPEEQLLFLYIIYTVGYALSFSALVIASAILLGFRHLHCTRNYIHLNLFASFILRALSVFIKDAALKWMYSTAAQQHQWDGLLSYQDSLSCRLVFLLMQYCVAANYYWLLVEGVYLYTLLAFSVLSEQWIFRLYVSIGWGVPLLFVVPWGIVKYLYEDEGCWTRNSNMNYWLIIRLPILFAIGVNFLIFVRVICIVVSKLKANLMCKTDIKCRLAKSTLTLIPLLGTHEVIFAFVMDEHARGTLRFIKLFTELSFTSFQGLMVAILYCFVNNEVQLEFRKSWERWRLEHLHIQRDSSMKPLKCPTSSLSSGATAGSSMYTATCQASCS

Row | SMILES | EC50
1 | CC1(C)COC[C@H]1n1c(Cc2cc(F)c(-c3ccc(F)c(OCc4cnc(-n5ccnn5)cc4Cl)n3)cc2F)nc2c(F)cc(C(=O)O)cc21 [Example 153, (S)-2-(4-(6-((4-chloro-6-(1H-1,2,3-triazol-1-yl)pyridin-3-yl)methoxy)-5-fluoropyridin-2-yl)-2,5-difluorobenzyl)-1-(4,4-dimethyltetrahydrofuran-3-yl)-4-fluoro-1H-benzo[d]imidazole-6-carboxylic Acid] | 0.011 nM
2 | CC1(C)COC[C@H]1n1c(Cc2ccc(-c3ccc(F)c(OCc4cnc(-n5ccnn5)cc4Cl)n3)cc2F)nc2c(F)cc(C(=O)O)cc21 [Example 154, (S)-2-(4-(6-((4-chloro-6-(1H-1,2,3-triazol-1-yl)pyridin-3-yl)methoxy)-5-fluoropyridin-2-yl)-2-fluorobenzyl)-1-(4,4-dimethyltetrahydrofuran-3-yl)-4-fluoro-1H-benzo[d]imidazole-6-carboxylic Acid] | 0.034 nM
3 | COCCn1c(Cc2ccc(-c3ccc(F)c(OCc4cnc(-n5ccnn5)cc4Cl)n3)cc2F)nc2ccc(C(=O)O)cc21 [Example 155, 2-(4-(6-((4-chloro-6-(1H-1,2,3-triazol-1-yl)pyridin-3-yl)methoxy)-5-fluoropyridin-2-yl)-2-fluorobenzyl)-1-(2-methoxyethyl)-1H-benzo[d]imidazole-6-carboxylic Acid] | 0.416 nM
4 | Cc1cc(Cc2nc3ccc(C(=O)O)cc3n2[C@@H]2COCC2(C)C)c(Cl)cc1-c1cccc(OCc2cnc(-n3ccnn3)cc2Cl)n1 [Example 156, (S)-2-(2-chloro-4-(6-((4-chloro-6-(1H-1,2,3-triazol-1-yl)pyridin-3-yl)methoxy)pyridin-2-yl)-5-methylbenzyl)-1-(4,4-dimethyltetrahydrofuran-3-yl)-1H-benzo[d]imidazole-6-carboxylic Acid] | 0.064 nM
5 | CC1(C)COC[C@H]1n1c(Cc2c(F)cc(-c3cccc(OCc4cnc(-n5ccnn5)cc4Cl)n3)c(F)c2F)nc2ccc(C(=O)O)cc21 [Example 157, (S)-2-(4-(6-((4-chloro-6-(1H-1,2,3-triazol-1-yl)pyridin-3-yl)methoxy)pyridin-2-yl)-2,3,6-trifluorobenzyl)-1-(4,4-dimethyltetrahydrofuran-3-yl)-1H-benzo[d]imidazole-6-carboxylic Acid] | 0.081 nM
6 | CC1(C)COC[C@H]1n1c(Cc2ccc(-c3cccc(OCc4cnc(-n5ccnn5)cc4Cl)n3)cc2F)nc2ccc(C(=O)O)cc21 [Example 158, (S)-2-(4-(6-((4-chloro-6-(1H-1,2,3-triazol-1-yl)pyridin-3-yl)methoxy)pyridin-2-yl)-2-fluorobenzyl)-1-(4,4-dimethyltetrahydrofuran-3-yl)-1H-benzo[d]imidazole-6-carboxylic Acid] | 0.032 nM
7 | CC1(C)COC[C@H]1n1c(Cc2c(F)cc(-c3ccc(F)c(OCc4cnc(-n5ccnn5)cc4Cl)n3)c(F)c2F)nc2ccc(C(=O)O)cc21 [Example 159, (S)-2-(4-(6-((4-chloro-6-(1H-1,2,3-triazol-1-yl)pyridin-3-yl)methoxy)-5-fluoropyridin-2-yl)-2,3,6-trifluorobenzyl)-1-(4,4-dimethyltetrahydrofuran-3-yl)-1H-benzo[d]imidazole-6-carboxylic Acid] | 0.043 nM
8 | CC1(C)COC[C@H]1n1c(Cc2cc(F)c(-c3ccc(F)c(OCc4cnc(-n5ccnn5)cc4Cl)n3)cc2F)nc2ccc(C(=O)O)cc21 [Example 160, (S)-2-(4-(6-((4-chloro-6-(1H-1,2,3-triazol-1-yl)pyridin-3-yl)methoxy)-5-fluoropyridin-2-yl)-2,5-difluorobenzyl)-1-(4,4-dimethyltetrahydrofuran-3-yl)-1H-benzo[d]imidazole-6-carboxylic Acid] | 0.035 nM
9 | CC1(C)COC[C@H]1n1c(Cc2ccc(-c3ccc(F)c(OCc4cnc(-n5ccnn5)cc4Cl)n3)cc2F)nc2ccc(C(=O)O)cc21 [Example 161, (S)-2-(4-(6-((4-chloro-6-(1H-1,2,3-triazol-1-yl)pyridin-3-yl)methoxy)-5-fluoropyridin-2-yl)-2-fluorobenzyl)-1-(4,4-dimethyltetrahydrofuran-3-yl)-1H-benzo[d]imidazole-6-carboxylic Acid] | 0.015 nM
10 | CC1(C)COC[C@H]1n1c(Cc2cc(F)c(-c3cccc(OCc4ncc(-n5ccnn5)cc4Cl)n3)cc2F)nc2ccc(C(=O)O)cc21 [Example 162, (S)-2-(4-(6-((3-chloro-5-(1H-1,2,3-triazol-1-yl)pyridin-2-yl)methoxy)pyridin-2-yl)-2,5-difluorobenzyl)-1-(4,4-dimethyltetrahydrofuran-3-yl)-1H-benzo[d]imidazole-6-carboxylic Acid] | 0.187 nM
11 | CC1(C)COC[C@H]1n1c(Cc2cc(F)c(-c3ccc(F)c(OCc4ccc(-n5ccnn5)cc4F)n3)cc2F)nc2ccc(C(=O)O)cc21 [Example 163, (S)-2-(2,5-difluoro-4-(5-fluoro-6-((2-fluoro-4-(1H-1,2,3-triazol-1-yl)benzyl)oxy)pyridin-2-yl)benzyl)-1-(4,4-dimethyltetrahydrofuran-3-yl)-1H-benzo[d]imidazole-6-carboxylic Acid] | 0.039 nM
12 | Cc1cn(-c2ccc(COc3cccc(-c4cc(F)c(Cc5nc6ccc(C(=O)O)cc6n5[C@@H]5COCC5(C)C)cc4F)n3)c(F)c2)nn1 [Example 164, (S)-2-(2,5-difluoro-4-(6-((2-fluoro-4-(4-methyl-1H-1,2,3-triazol-1-yl)benzyl)oxy)pyridin-2-yl)benzyl)-1-(4,4-dimethyltetrahydrofuran-3-yl)-1H-benzo[d]imidazole-6-carboxylic Acid] | 0.085 nM
13 | CC1(C)COCC1n1c(Cc2cc(F)c(-c3cccc(OCc4ccc(C#N)cc4F)n3)cc2F)nc2ccc(C(=O)O)c(F)c21 (centres unmarked) [Example 165, 2-(4-(6-((4-cyano-2-fluorobenzyl)oxy)pyridin-2-yl)-2,5-difluorobenzyl)-1-(4,4-dimethyltetrahydrofuran-3-yl)-7-fluoro-1H-benzo[d]imidazole-6-carboxylic Acid] | 0.553 nM
14 | CC1(C)COCC1n1c(Cc2cc(F)c(-c3cccc(OCc4ccc(C#N)cc4F)n3)cc2F)nc2ccc(C(=O)O)c(F)c21 (centres unmarked) [Example 166, 2-(4-(6-((4-cyano-2-fluorobenzyl)oxy)pyridin-2-yl)-2,5-difluorobenzyl)-1-(4,4-dimethyltetrahydrofuran-3-yl)-7-fluoro-1H-benzo[d]imidazole-6-carboxylic Acid] | 0.222 nM

Other lines, results leading:

Row | EC50 | SMILES
15 | 0.027 nM | CC1(C)COC[C@H]1n1c(Cc2cc(F)c(-c3cccc(OCc4ccc(-n5ccnn5)cc4F)n3)cc2F)nc2ccc(C(=O)O)cc21 [Example 167, (S)-2-(2,5-difluoro-4-(6-((2-fluoro-4-(1H-1,2,3-triazol-1-yl)benzyl)oxy)pyridin-2-yl)benzyl)-1-(4,4-dimethyltetrahydrofuran-3-yl)-1H-benzo[d]imidazole-6-carboxylic Acid]
16 | 0.388 nM | CC1(C)COC[C@H]1n1c(Cc2cc(F)c(-c3cccc(OCc4ccc(C(F)(F)F)cc4F)n3)cc2F)nc2ccc(C(=O)O)cc21 [Example 168, (S)-2-(2,5-difluoro-4-(6-((2-fluoro-4-(trifluoromethyl)benzyl)oxy)pyridin-2-yl)benzyl)-1-(4,4-dimethyltetrahydrofuran-3-yl)-1H-benzo[d]imidazole-6-carboxylic Acid]
17 | 0.171 nM | CC1(C)COC[C@H]1n1c(Cc2cc(F)c(-c3cccc(OCc4ccc(C(F)(F)F)cc4F)n3)cc2F)nc2c(F)cc(C(=O)O)cc21 [Example 169, (S)-2-(2,5-difluoro-4-(6-((2-fluoro-4-(trifluoromethyl)benzyl)oxy)pyridin-2-yl)benzyl)-1-(4,4-dimethyltetrahydrofuran-3-yl)-4-fluoro-1H-benzo[d]imidazole-6-carboxylic Acid]
18 | 0.227 nM | COc1nc(Cl)ccc1COc1cccc(-c2cc(F)c(Cc3nc4c(F)cc(C(=O)O)cc4n3C3COCC3(C)C)cc2F)n1 (centres unmarked) [Example 170, 2-(4-(6-((6-chloro-2-methoxypyridin-3-yl)methoxy)pyridin-2-yl)-2,5-difluorobenzyl)-1-(4,4-dimethyltetrahydrofuran-3-yl)-4-fluoro-1H-benzo[d]imidazole-6-carboxylic Acid]
19 | 0.05 nM | CC1(C)COC[C@H]1n1c(Cc2cc(F)c(-c3cccc(OCc4cnc(-n5ccnn5)cc4Cl)n3)cc2F)nc2c(F)cc(C(=O)O)cc21 [Example 171, (S)-2-(4-(6-((4-chloro-6-(1H-1,2,3-triazol-1-yl)pyridin-3-yl)methoxy)pyridin-2-yl)-2,5-difluorobenzyl)-1-(4,4-dimethyltetrahydrofuran-3-yl)-4-fluoro-1H-benzo[d]imidazole-6-carboxylic Acid]
20 | 0.129 nM | N#Cc1ccc(COc2cccc(-c3cc(F)c(Cc4nc5ccc(C(=O)O)cc5n4[C@H]4COC[C@H]4CF)cc3F)n2)c(F)c1 [Example 172]
21 | 0.018 nM | CC1(C)COCC1n1c(Cc2cc(F)c(-c3cccc(OCc4cnc(-n5ccnn5)cc4Cl)n3)cc2F)nc2c(F)cc(C(=O)O)cc21 (centres unmarked) [Example 173, 2-(4-(6-((4-chloro-6-(1H-1,2,3-triazol-1-yl)pyridin-3-yl)methoxy)pyridin-2-yl)-2,5-difluorobenzyl)-1-(4,4-dimethyltetrahydrofuran-3-yl)-4-fluoro-1H-benzo[d]imidazole-6-carboxylic Acid]
22 | 0.051 nM | CC1(C)COCC1n1c(Cc2cc(F)c(-c3cccc(OCc4cnc(-n5ccnc5)cc4Cl)n3)cc2F)nc2c(F)cc(C(=O)O)cc21 (centres unmarked) [Example 174, 2-(4-(6-((4-chloro-6-(1H-imidazol-1-yl)pyridin-3-yl)methoxy)pyridin-2-yl)-2,5-difluorobenzyl)-1-(4,4-dimethyltetrahydrofuran-3-yl)-4-fluoro-1H-benzo[d]imidazole-6-carboxylic Acid]
23 | 0.106 nM | CC1(C)COCC1n1c(Cc2cc(F)c(-c3cccc(OCc4ccc(C(F)(F)F)cc4F)n3)cc2F)nc2c(F)cc(C(=O)O)cc21 (centres unmarked) [Example 175, 2-(2,5-difluoro-4-(6-((2-fluoro-4-(trifluoromethyl)benzyl)oxy)pyridin-2-yl)benzyl)-1-(4,4-dimethyltetrahydrofuran-3-yl)-4-fluoro-1H-benzo[d]imidazole-6-carboxylic Acid]
